Patent US7790762B2, “Compounds and methods for thiol-containing compound efflux and cancer treatment” (National Jewish Health, priority 2002, dated 2010)

System: A549 cells
Assay: Intracellular GSH levels by HPLC-EC in A549 cells
Format: cell-based, human
Details: A549, 25 μM, 2 h
Procedure: (§1) Cell lines and culture conditions. Human lung epithelial cancer (A549), human leukemia HL-60 and human prostate (PC-3) tumor cells were purchased from ATCC (Manassas, Va.). A549 and PC-3 cells were grown in Ham's F12 medium (F12) and Kaighn's modification of Ham's F12 medium (F12K) with 2 mM L-glutamine (ATCC), respectively, supplemented with 10% fetal bovine serum (FBS) and 5% pen/strep (10,000 unit, Cellgro). HL-60 cells were grown in Iscove's modified Dulbecco's medium with 4 mM L-glutamine (ATCC) supplemented with 20% FBS and 5% pen/strep. Cell were grown in T-75 flask at 37° C. and 5% CO2 air atmosphere and in 24-well plates for GSH levels and LDH release measurements.
(§2) Intracellular levels of GSH. Intracellular GSH levels can be determined by HPLC-EC. Cultured cells from 24-well plates were washed once with 1 ml of PBS and then re-suspended in 0.5 ml of distilled water with 40 μM of digitonin (2 mM stock solution in DMSO) for 30 min at room temperature. Then, 50 μl of 10% meta-phosphoric acid were added (1% final concentration), the samples were sonicated for 2 min, centrifuged at 20,000 g for 10 min, and 0.2 ml of supernatant placed in vials for HPLC analysis. […] The flow rate was […]. The retention time for GSH in these conditions was 7.5 min. The HPLC instrument was from ESA, Inc. (Chelmsford, Mass.), equipped with an autosampler (model 540) and a Coul array detector (model 5600A). The potential applied was +0.75 V vs. H/Pd electrode, and the injection volume 5 μl.

| Structure (SMILES) | Intracellular GSH levels, % compared to control |
| --- | --- |
| O=C(/C=C/c1ccccc1O)c1ccccc1O [2′,2-DHC, 2′ 2 dihydroxychalcone] | <5% |
| O=C(/C=C/c1ccccc1)c1ccc(O)cc1O [2′,4′-DHC, 2′ 4′ dihydroxychalcone] | 22.0 ± 1.8% |

Same assay, conditions: A549, 25 μM, 4 h

| Structure (SMILES) | Intracellular GSH levels, % compared to control |
| --- | --- |
| O=c1c(O)c(-c2ccc(O)cc2)oc2cc(O)cc(O)c12 [Kaempferol, 3,5,7,4′quadrahydroxyflavone] | 29.6 ± 0.9% |
| O=c1c(O)c(-c2ccc(O)c(O)c2)oc2cc(O)cc(O)c12 [Quercetin] | 51.0 ± 0.7% |
| O=c1c(-c2ccc(O)cc2)coc2cc(O)cc(O)c12 [Genistein] | 34.8 ± 1.1% |
| O=C(/C=C/c1ccccc1O)c1ccccc1O [2′,2-DHC, 2′ 2 dihydroxychalcone] | <5% |
| O=C(/C=C/c1ccccc1)c1ccc(O)cc1O [2′,4′-DHC, 2′ 4′ dihydroxychalcone] | <5% |

Same assay, conditions: A549, 25 μM, 24 hours treatment

| Structure (SMILES) | Int. GSH % con. |
| --- | --- |
| O=c1c(O)c(-c2ccc(O)cc2)oc2cc(O)cc(O)c12 [Kaempferol, 3,5,7,4′quadrahydroxyflavone] | 7 % con. |
| O=c1c(O)c(-c2ccc(O)c(O)c2)oc2cc(O)cc(O)c12 [Quercetin] | 36 % con. |
| O=c1c(-c2ccc(O)cc2)coc2cc(O)cc(O)c12 [Genistein] | 5 % con. |

Same assay, conditions: A549, 50 μM, 24 hours treatment

| Structure (SMILES) | Int. GSH % con. |
| --- | --- |
| COc1cc2c(cc1O)CC[C@@H]1[C@@H]2CC[C@]2(C)[C@@H](O)CC[C@@H]12 [2-ME, 2-methoxyestradiol, reference compound] | 49 % con. |
| C[C@]12CC[C@@H]3c4ccc(O)cc4CC[C@H]3[C@@H]1CC[C@@H]2O [β-Estradiol, β-estradiol, reference compound] | 41 % con. |

Same assay, conditions: A549 cells

| Structure (SMILES) | effect on intracellular GSH (words) |
| --- | --- |
| COc1ccc2c(=O)cc(-c3ccccc3)oc2c1 [7-MF, 7-Methoxyflavone] | less effective than 7-HF but more effective than flavone |
| O=c1cc(-c2ccccc2)oc2cccc(O)c12 [5-HF, 5-hydroxyflavone] | less effective |

Same assay, conditions: Homo sapiens; A549, 25 μM, 2 h; read-out: Intracellular GSH levels, % compared to control

| Structure (SMILES) | activity at 25 µM |
| --- | --- |
| O=c1cc(-c2ccccc2)oc2ccccc12 [Flavone, flavone] | 89.7 ± 0.6% |
| CN(C)C(=O)CCSC(SCCC(=O)O)c1cccc(/C=C/c2ccc3ccc(Cl)cc3n2)c1 (stereo not shown) [MK-571, reference compound] | 62.6 ± 4.9% |
| COc1ccc2c(=O)cc(-c3ccccc3)oc2c1 [7-MF, 7-Methoxyflavone] | 78.2 ± 2.4% |

Same assay, conditions: Homo sapiens; A549, 25 μM, 4 h; read-out: Intracellular GSH levels, % compared to control

| Structure (SMILES) | activity at 25 µM |
| --- | --- |
| O=c1cc(-c2ccccc2)oc2ccccc12 [Flavone, flavone] | 29.7 ± 4.8% |
| CN(C)C(=O)CCSC(SCCC(=O)O)c1cccc(/C=C/c2ccc3ccc(Cl)cc3n2)c1 (stereo not shown) [MK-571, reference compound] | < 5% |
| O=c1cc(-c2ccccc2)oc2cccc(O)c12 [5-HF, 5-hydroxyflavone] | 44.7 ± 3.4% |

Same assay, conditions: Homo sapiens; A549, 25 μM, 24 hours treatment; read-out: Int. GSH % con.

| Structure (SMILES) | activity at 25 µM |
| --- | --- |
| O=c1cc(-c2ccccc2)oc2ccccc12 [Flavone, flavone] | < 5% |
| CN(C)C(=O)CCSC(SCCC(=O)O)c1cccc(/C=C/c2ccc3ccc(Cl)cc3n2)c1 (stereo not shown) [MK-571, reference compound] | < 5% |

System: HL-60 cells
Assay: Cytotoxicity as LDH release in HL-60 cells
Format: cell-based, human
Details: HL-60, 25 μM, 48 hours treatment
Procedure: as §1
(§3) Assessment of cytotoxicity. In one exemplary method, membrane integrity of A549, HL-60 and PC-3 cells was used as an index of drug-induced cytotoxicity, and was assessed by monitoring the release of cytosolic lactate dehydrogenase (LDH). LDH activity was measured in the culture medium and cell lysates (50 mM HEPES, Triton X-100 0.5%, pH 7) using a plate reader format as previously described (41). Briefly, 5 μl of cell culture supernatant and lysates were incubated with 0.24 mM NADH in a Tris/NaCl pH 7.2 buffer in 96-well plates for 5 min at 25° C. The reaction was started by the addition of 9.8 mM pyruvate and the consumption of NADH followed at 340 nm for 5 min at 30° C. Percent LDH release was calculated by the following: (supernatant LDH/supernatant LDH+lysate LDH)×100.

| Structure (SMILES) | LDH rel. % con. |
| --- | --- |
| COc1cc2c(cc1O)CC[C@@H]1[C@@H]2CC[C@]2(C)[C@@H](O)CC[C@@H]12 [2-ME, 2-methoxyestradiol, reference compound] | 265 % con. |
| C[C@]12CC[C@@H]3c4ccc(O)cc4CC[C@H]3[C@@H]1CC[C@@H]2O [β-Estradiol, β-estradiol, reference compound] | 120 % con. |

Same assay, conditions: HL-60, 50 μM, 48 hours treatment

| Structure (SMILES) | LDH rel. % con. |
| --- | --- |
| O=c1c(O)c(-c2ccc(O)cc2)oc2cc(O)cc(O)c12 [Kaempferol, 3,5,7,4′quadrahydroxyflavone] | 128 % con. |
| O=c1c(O)c(-c2ccc(O)c(O)c2)oc2cc(O)cc(O)c12 [Quercetin] | 157 % con. |
| O=c1c(-c2ccc(O)cc2)coc2cc(O)cc(O)c12 [Genistein] | 160 % con. |

Same assay, conditions: Homo sapiens; HL-60, 25 μM, 48 hours treatment; read-out: LDH rel. % con.

| Structure (SMILES) | LDH release, % of control at 25 µM |
| --- | --- |
| CN(C)C(=O)CCSC(SCCC(=O)O)c1cccc(/C=C/c2ccc3ccc(Cl)cc3n2)c1 (stereo not shown) [MK-571, reference compound] | 169% |

Same assay, conditions: Homo sapiens; HL-60, 50 μM, 48 hours treatment; read-out: LDH rel. % con.

| Structure (SMILES) | LDH release, % of control at 50 µM |
| --- | --- |
| O=c1cc(-c2ccccc2)oc2ccccc12 [Flavone, flavone] | 116% |

System: HL-60 cells
Assay: Intracellular GSH levels by HPLC-EC in HL-60 cells
Format: cell-based, human
Details: HL-60, 25 μM, 24 hours treatment
Procedure: as §1, §2

| Structure (SMILES) | Int. GSH % con. |
| --- | --- |
| COc1cc2c(cc1O)CC[C@@H]1[C@@H]2CC[C@]2(C)[C@@H](O)CC[C@@H]12 [2-ME, 2-methoxyestradiol, reference compound] | 41 % con. |
| C[C@]12CC[C@@H]3c4ccc(O)cc4CC[C@H]3[C@@H]1CC[C@@H]2O [β-Estradiol, β-estradiol, reference compound] | 70 % con. |

Same assay, conditions: HL-60, 50 μM, 24 hours treatment

| Structure (SMILES) | Int. GSH % con. |
| --- | --- |
| O=c1c(O)c(-c2ccc(O)cc2)oc2cc(O)cc(O)c12 [Kaempferol, 3,5,7,4′quadrahydroxyflavone] | 75 % con. |
| O=c1c(O)c(-c2ccc(O)c(O)c2)oc2cc(O)cc(O)c12 [Quercetin] | 94 % con. |

Same assay, conditions: HL-60, 75 μM, 24 hours treatment

| Structure (SMILES) | Int. GSH % con. |
| --- | --- |
| O=c1c(-c2ccc(O)cc2)coc2cc(O)cc(O)c12 [Genistein] | 57 % con. |

Same assay, conditions: Homo sapiens; HL-60, 25 μM, 24 hours treatment; read-out: Int. GSH % con.

| Structure (SMILES) | activity at 25 µM |
| --- | --- |
| CN(C)C(=O)CCSC(SCCC(=O)O)c1cccc(/C=C/c2ccc3ccc(Cl)cc3n2)c1 (stereo not shown) [MK-571, reference compound] | 40% |

Same assay, conditions: Homo sapiens; HL-60, 50 μM, 24 hours treatment; read-out: Int. GSH % con.

| Structure (SMILES) | activity at 50 µM |
| --- | --- |
| O=c1cc(-c2ccccc2)oc2ccccc12 [Flavone, flavone] | 85% |

System: PC-3 cells
Assay: Cytotoxicity as LDH release in PC-3 cells
Format: cell-based, human
Details: Homo sapiens; PC-3, 50 μM, 48 hours treatment; read-out: LDH rel. % con.
Procedure: as §1, §3

| Structure (SMILES) | LDH release, % of control at 50 µM |
| --- | --- |
| O=c1cc(-c2ccccc2)oc2ccccc12 [Flavone, flavone] | 91% |
| CN(C)C(=O)CCSC(SCCC(=O)O)c1cccc(/C=C/c2ccc3ccc(Cl)cc3n2)c1 (stereo not shown) [MK-571, reference compound] | 143% |

Same assay, conditions: PC-3, 50 μM, 48 hours treatment

| Structure (SMILES) | LDH rel. % con. |
| --- | --- |
| O=c1c(O)c(-c2ccc(O)cc2)oc2cc(O)cc(O)c12 [Kaempferol, 3,5,7,4′quadrahydroxyflavone] | 115 % con. |
| O=c1c(O)c(-c2ccc(O)c(O)c2)oc2cc(O)cc(O)c12 [Quercetin] | 80 % con. |
| COc1cc2c(cc1O)CC[C@@H]1[C@@H]2CC[C@]2(C)[C@@H](O)CC[C@@H]12 [2-ME, 2-methoxyestradiol, reference compound] | 128 % con. |
| O=c1c(-c2ccc(O)cc2)coc2cc(O)cc(O)c12 [Genistein] | 131 % con. |

System: A549 cells
Assay: Cytotoxicity as LDH release in A549 cells
Format: cell-based, human
Details: A549, 75 μM, 48 hours treatment
Procedure: as §1, §3

| Structure (SMILES) | LDH rel. % con. |
| --- | --- |
| O=c1c(O)c(-c2ccc(O)cc2)oc2cc(O)cc(O)c12 [Kaempferol, 3,5,7,4′quadrahydroxyflavone] | 173 % con. |
| O=c1c(O)c(-c2ccc(O)c(O)c2)oc2cc(O)cc(O)c12 [Quercetin] | 175 % con. |
| COc1cc2c(cc1O)CC[C@@H]1[C@@H]2CC[C@]2(C)[C@@H](O)CC[C@@H]12 [2-ME, 2-methoxyestradiol, reference compound] | 150 % con. |
| O=c1c(-c2ccc(O)cc2)coc2cc(O)cc(O)c12 [Genistein] | 350 % con. |

Same assay, conditions: Homo sapiens; A549, 50 μM, 48 hours treatment; read-out: LDH rel. % con.

| Structure (SMILES) | LDH release, % of control at 50 µM |
| --- | --- |
| CN(C)C(=O)CCSC(SCCC(=O)O)c1cccc(/C=C/c2ccc3ccc(Cl)cc3n2)c1 (stereo not shown) [MK-571, reference compound] | 249% |

Same assay, conditions: Homo sapiens; A549, 75 μM, 48 hours treatment; read-out: LDH rel. % con.

| Structure (SMILES) | LDH release, % of control at 75 µM |
| --- | --- |
| O=c1cc(-c2ccccc2)oc2ccccc12 [Flavone, flavone] | 164% |

System: PC-3 cells
Assay: Intracellular GSH levels by HPLC-EC in PC-3 cells
Format: cell-based, human
Details: Homo sapiens; PC-3, 25 μM, 24 hours treatment; read-out: Int. GSH % con.
Procedure: as §1, §2

| Structure (SMILES) | activity at 25 µM |
| --- | --- |
| O=c1cc(-c2ccccc2)oc2ccccc12 [Flavone, flavone] | 84% |
| CN(C)C(=O)CCSC(SCCC(=O)O)c1cccc(/C=C/c2ccc3ccc(Cl)cc3n2)c1 (stereo not shown) [MK-571, reference compound] | 41% |

Same assay, conditions: PC-3, 25 μM, 24 hours treatment

| Structure (SMILES) | Int. GSH % con. |
| --- | --- |
| O=c1c(O)c(-c2ccc(O)cc2)oc2cc(O)cc(O)c12 [Kaempferol, 3,5,7,4′quadrahydroxyflavone] | 77 % con. |
| O=c1c(O)c(-c2ccc(O)c(O)c2)oc2cc(O)cc(O)c12 [Quercetin] | 95 % con. |
| COc1cc2c(cc1O)CC[C@@H]1[C@@H]2CC[C@]2(C)[C@@H](O)CC[C@@H]12 [2-ME, 2-methoxyestradiol, reference compound] | 68 % con. |
| C[C@]12CC[C@@H]3c4ccc(O)cc4CC[C@H]3[C@@H]1CC[C@@H]2O [β-Estradiol, β-estradiol, reference compound] | 98 % con. |
| O=c1c(-c2ccc(O)cc2)coc2cc(O)cc(O)c12 [Genistein] | 81 % con. |
